{"source": "patent US9555050B2", "about": "(BIOGEN MA INC., priority 2012, dated 2017)"}
{"target": "T1, Human ATX protein (Homo sapiens, UniProt Q13822)", "T1 construct": "made in house", "test": "ATX biochemical FRET assay with FS-3 substrate", "settings": "FS-3 substrate 2 μM, ATX 1.0 μg/mL, 30 min preincubation, 2 hours at room temperature", "procedure,_shortened": "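In-house purified human ATX (1.0 μg/mL final) pre-incubated 30 min at room temperature with compound in Tris buffer pH 7.4 with salts and 1 mg/mL fatty acid-free BSA. FS-3 substrate (2 μM final) then hydrolysed 2 h at room temperature, protected from light; fluorescence read at 485/538 nm.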", "units": {"IC50": "nM"}}
{"smiles": "C[C@H]1CC[C@@H](Oc2ccc3cc(CN4CC(CC(=O)O)C4)ccc3c2C(F)(F)F)CC1", "note": "[Example 47, 1-((5-trifluoromethyl-6-(cis-4-methylcyclohexyloxy)naphthalene-2-yl)methyl)-azetidine-3-acetic acid]", "IC50": "≤ 500"}
{"smiles": "O=C(O)C[C@H]1CCCN(Cc2ccc3c(C(F)(F)F)c(O[C@H]4CC[C@@H](C(F)(F)F)CC4)ccc3c2)C1", "note": "[Example 80, 2-((R)-1-((2-(cis-4-(trifluoromethyl)cyclohexyloxy)-1-(trifluoromethyl)naphthalen-6-yl)methyl)piperidin-3-yl)acetic acid]", "IC50": "≤ 250"}
{"smiles": "CC1(C)C(NCc2ccc3c(C(F)(F)F)c(OC4CCC(C(F)(F)F)CC4)ccc3n2)CC1C(=O)O", "note": "(stereo not drawn) [Example 87, 2,2-dimethyl-3-((((5-(trifluoromethyl)-6-(cis-4-(trifluoromethyl)cyclo-hexyl)oxy)quinolin-2-yl)methyl)amino)cyclobutanecarboxylic acid]", "IC50": "≤ 500"}
{"smiles": "CC1(C)C(NC(c2ccc3c(C(F)(F)F)c(O[C@H]4CC[C@@H](C(F)(F)F)CC4)ccc3c2)C2CC2)CC1C(=O)O", "note": "(stereo partly drawn) [Example 44]", "IC50": "≤ 100"}
{"smiles": "CCC(c1ccc2c(C(F)F)c(O[C@H]3CC[C@@H](C)CC3)ccc2c1)N1CC(CC(=O)O)C1", "note": "(relative stereo) [Example 99, 1-(1-(5-(Difluoromethyl)-6-((cis-4-methylcyclohexyl)oxy)naphthalen-2-yl)propyl)azetidine-3-acetic acid]", "IC50": "≤ 100"}
{"smiles": "CC1(C)C(NCc2ccc3c(C(F)F)c(O[C@H]4CC[C@@H](C(F)(F)F)CC4)ccc3c2)CC1C(=O)O", "note": "(relative stereo) [Example 33, 3-((5-(difluoromethyl)-6-((cis)-4-(trifluoromethyl)cyclohexyloxy)naphthalen-2-yl)methylamino)-2,2-dimethylcyclobutanecarboxylic acid]", "IC50": "≤ 500"}
{"smiles": "C[C@H]1CC[C@@H](Oc2ccc3cc(CN4CCC(CC(=O)O)C4)ccc3c2C(F)(F)F)CC1", "note": "(relative stereo) [Example 46, 1-((5-trifluoromethyl-6-(cis-4-methylcyclohexyloxy)naphthalene-2-yl)methyl)-pyrrolidine-3-acetic acid]", "IC50": "≤ 500"}
{"smiles": "NC1(C(=O)O)CCN(Cc2ccc3c(C(F)(F)F)c(O[C@H]4CC[C@@H](C(F)(F)F)CC4)ccc3c2)C1", "note": "(relative stereo) [Example 78, 1-((5-(trifluoromethyl)-6-((cis-4-(trifluoromethyl)cyclohexyl)oxy)-naphthalen-2-yl)methyl)-3-aminopyrrolidine-3-carboxylic acid]", "IC50": "≤ 500"}
{"smiles": "C[C@H]1CC[C@@H](Oc2ccc3cc(CN4CC(CC(=O)O)C4)ccc3c2C(F)F)CC1", "note": "[Example 97, 1-((5-(Difluoromethyl)-6-((cis-4-methylcyclohexyl)oxy)naphthalen-2-yl)methyl)azetidine-3-acetic acid]", "IC50": "≤ 100"}
{"smiles": "O=C(O)CCC1CCN(Cc2ccc3c(C(F)(F)F)c(O[C@H]4CC[C@@H](C(F)(F)F)CC4)ccc3c2)CC1", "note": "[Example 83, 3-(1-((2-(cis-4-(trifluoromethyl)cyclohexyloxy)-1-(trifluoromethyl)naphthalen-6-yl)methyl)piperidine-4-yl)propionic acid]", "IC50": "≤ 500"}
{"smiles": "CC(c1ccc2c(C(F)(F)F)c(O[C@H]3CC[C@@H](C)CC3)ccc2c1)N1CCC(C(=O)O)CC1", "note": "(relative stereo) [Example 45, 1-(1-(5-trifluoromethyl-6-(cis-4-methylcyclohexyloxy)naphthalene-2-yl)ethyl)-piperidine-4-carboxylic acid]", "IC50": "≤ 500"}
{"smiles": "O=C(O)C1CCN(Cc2ccc3c(C(F)F)c(O[C@H]4CC[C@@H](C(F)(F)F)CC4)ccc3c2)CC1", "note": "[Example 21, 1-((5-(difluoromethyl)-6-((cis-4-(trifluoromethyl)cyclohexyl)oxy)naphthalen-2-yl)methyl)piperidine-4-carboxylic acid]", "IC50": "≤ 250"}
{"smiles": "O=C(O)CC1CCCN(Cc2ccc3c(C(F)(F)F)c(O[C@H]4CC[C@@H](C(F)(F)F)CC4)ccc3c2)C1", "note": "(relative stereo) [Example 67, 1-((5-(trifluoromethyl)-6-((cis-4-(trifluoromethyl)cyclohexyl)oxy)-naphthalen-2-yl)methyl)piperidine-3-acetic acid]", "IC50": "≤ 250"}
{"smiles": "O=C(O)CC1CCN(Cc2ccc3c(C(F)(F)F)c(O[C@H]4CC[C@@H](C(F)(F)F)CC4)ccc3c2)C1", "note": "(relative stereo) [Example 64, 1-((5-(trifluoromethyl)-6-((cis-4-(trifluoromethyl)cyclohexyl)oxy)-naphthalen-2-yl)methyl)pyrrolidine-3-acetic acid]", "IC50": "≤ 250"}
{"smiles": "CC(c1ccc2c(C(F)F)c(O[C@H]3CC[C@@H](C)CC3)ccc2c1)N1CC(CC(=O)O)C1", "note": "(relative stereo) [Example 98, 1-(1-(5-(Difluoromethyl)-6-((cis-4-methylcyclohexyl)oxy)naphthalen-2-yl)ethyl)azetidine-3-acetic acid]", "IC50": "≤ 100"}
{"smiles": "O=C(O)CCC1CCC(NCc2ccc3c(C(F)(F)F)c(OC4CCC(C(F)(F)F)CC4)ccc3c2)CC1", "note": "(stereo not drawn) [Example 73, 3-((4-((5-(trifluoromethyl)-6-(cis-4-(trifluoromethyl)cyclohexyloxy)naphthalene-2-yl)methyl)amino)cyclohexyl)propionic acid]", "IC50": "≤ 500"}
{"smiles": "C[C@H]1CC[C@@H](Oc2ccc3cc(CN4CCCCC(C(=O)O)C4)ccc3c2C(F)(F)F)CC1", "note": "(relative stereo) [Example 48, 1-((5-trifluoromethyl-6-(cis-4-methylcyclohexyloxy)naphthalene-2-yl)methyl)-azepane-3-carboxylic acid]", "IC50": "≤ 500"}
{"smiles": "CCC(c1ccc2c(C(F)(F)F)c(O[C@H]3CC[C@@H](C)CC3)ccc2c1)N1CCC[C@@H](CC(=O)O)C1", "note": "(stereo partly drawn) [Example 52, 2-((3S)-1-(1-(6-((cis-4-Methylcyclohexyl)oxy)-5-(trifluoromethyl)naphthalen-2-yl)propyl)piperidin-3-yl)acetic acid]", "IC50": "≤ 100"}
